Like-named read-outs stand apart in the source and are kept apart here.
Key:
Hs_CDK5/p25 = target: T1, Hs_CDK5/p25 (Homo sapiens, UniProt Q00535); assay: ADP-Glo kinase assay, primary screen; type: biochemical; conditions: n=2, read-out: % of residual activity Hs_CDK5/p25
T1 construct: host or cells: bacteria

Hs_HASPIN = target: T2, Hs_HASPIN (Homo sapiens, UniProt Q8TF76); assay: ADP-Glo kinase assay, primary screen; type: biochemical; conditions: n=2, read-out: % of residual activity Hs_HASPIN
T2 construct: host or cells: bacteria
T2 sequence (Q8TF76 1-798): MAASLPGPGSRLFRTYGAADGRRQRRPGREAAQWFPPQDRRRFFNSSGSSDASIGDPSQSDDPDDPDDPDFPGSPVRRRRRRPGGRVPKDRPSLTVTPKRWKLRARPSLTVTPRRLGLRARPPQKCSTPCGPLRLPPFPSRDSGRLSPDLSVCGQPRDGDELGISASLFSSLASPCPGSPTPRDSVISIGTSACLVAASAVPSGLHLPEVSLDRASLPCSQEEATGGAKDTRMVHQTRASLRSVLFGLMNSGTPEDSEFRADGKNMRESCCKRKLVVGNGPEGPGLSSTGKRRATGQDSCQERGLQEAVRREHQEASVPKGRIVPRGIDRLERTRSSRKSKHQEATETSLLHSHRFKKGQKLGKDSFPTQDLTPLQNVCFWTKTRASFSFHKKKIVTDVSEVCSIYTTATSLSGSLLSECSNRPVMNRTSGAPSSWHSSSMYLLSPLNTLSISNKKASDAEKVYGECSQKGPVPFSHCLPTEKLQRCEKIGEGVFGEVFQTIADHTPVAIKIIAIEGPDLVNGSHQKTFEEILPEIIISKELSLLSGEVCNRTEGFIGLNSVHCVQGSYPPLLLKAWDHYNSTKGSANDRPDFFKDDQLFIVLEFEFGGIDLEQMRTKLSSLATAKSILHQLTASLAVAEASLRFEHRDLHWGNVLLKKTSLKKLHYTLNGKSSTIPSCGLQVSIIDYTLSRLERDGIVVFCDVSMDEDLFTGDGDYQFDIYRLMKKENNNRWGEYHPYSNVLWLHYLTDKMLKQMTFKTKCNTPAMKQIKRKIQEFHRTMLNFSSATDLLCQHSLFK

Hs_CK1ε = target: T3, Hs_CK1ε (Homo sapiens, UniProt P49674); assay: ADP-Glo kinase assay, primary screen; type: biochemical; conditions: n=2, read-out: % of residual activity Hs_CK1ε
T3 construct: host or cells: Sf9 insect cells (baculovirus)
T3 sequence (P49674 whole entry): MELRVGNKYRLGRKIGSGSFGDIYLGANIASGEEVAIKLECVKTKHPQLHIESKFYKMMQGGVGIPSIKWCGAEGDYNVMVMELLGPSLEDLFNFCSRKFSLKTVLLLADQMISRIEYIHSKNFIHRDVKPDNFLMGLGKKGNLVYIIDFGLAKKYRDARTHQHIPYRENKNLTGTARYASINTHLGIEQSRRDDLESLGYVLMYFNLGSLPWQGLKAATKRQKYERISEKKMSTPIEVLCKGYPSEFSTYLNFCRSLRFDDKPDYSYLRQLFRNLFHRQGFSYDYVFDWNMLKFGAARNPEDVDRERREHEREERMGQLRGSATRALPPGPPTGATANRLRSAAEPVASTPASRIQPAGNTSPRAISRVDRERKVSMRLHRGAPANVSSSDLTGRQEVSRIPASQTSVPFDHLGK

Rn_DYRK1A = target: T4, Rn_DYRK1A (Rattus norvegicus, UniProt Q63470); assay: ADP-Glo kinase assay, primary screen; type: biochemical; conditions: n=2, read-out: % of residual activity Rn_DYRK1A
T4 construct: host or cells: bacteria

HsDYRK1A = target: T5, HsDYRK1A (Homo sapiens, UniProt Q13627); assay: ADP-Glo kinase assay; type: biochemical; conditions: n=2, read-out: % of residual activity Hs_DYRK1A
T5 construct: host or cells: Sf9 insect cells (baculovirus)

MmCLK1 = target: T6, MmCLK1 (Mus musculus, UniProt P22518); assay: ADP-Glo kinase assay; type: biochemical; conditions: for remaining activity at 1 µM / remaining activity at 10 µM: n=2, read-out: % of residual activity Mm_CLK1; for IC50: mouse CLK1 orthologue, read-out: IC50 MmCLK1
T6 construct: host or cells: bacteria
T6 sequence (P22518 whole entry): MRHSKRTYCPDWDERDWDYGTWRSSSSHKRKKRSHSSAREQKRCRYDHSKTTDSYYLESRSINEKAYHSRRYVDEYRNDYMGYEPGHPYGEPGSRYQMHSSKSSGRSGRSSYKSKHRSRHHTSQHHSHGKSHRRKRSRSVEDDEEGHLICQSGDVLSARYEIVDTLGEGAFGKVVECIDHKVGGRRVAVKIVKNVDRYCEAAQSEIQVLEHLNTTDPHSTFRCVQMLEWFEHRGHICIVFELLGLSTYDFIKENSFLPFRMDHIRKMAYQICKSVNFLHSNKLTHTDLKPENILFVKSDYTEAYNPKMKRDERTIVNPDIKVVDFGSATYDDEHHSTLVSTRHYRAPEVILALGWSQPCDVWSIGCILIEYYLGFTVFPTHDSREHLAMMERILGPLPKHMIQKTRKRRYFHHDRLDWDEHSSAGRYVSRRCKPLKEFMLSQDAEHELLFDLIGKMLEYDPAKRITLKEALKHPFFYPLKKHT

Human skin fibroblasts = assay: cytotoxic assay, nuclei count (Hoechst, HCS); type: cell-based; conditions: summary of Table S2
Description: (§1) To complete our study, we performed a cytotoxicity screening of the 15 molecules, investigating 7 representative cancer cell lines. The compound’s effect on cell viability was evaluated on Huh-7 (hepatocellular carcinoma), CaCo2, HCT-116 (colorectal adenocarcinoma), MCF7, MDA-MB231, MDA-MB468 (breast carcinoma), PC3 (prostate carcinoma) and NCI-H727 (lung carcinoid). Human skin fibroblasts were used as reference for non-cancerous cells. Roscovitine, Doxorubicin and Taxol were used as positive controls. The cells were treated for 48 h with 25 µM compounds and fixed in cooled 90% ethanol/5% acetic acid for 20 min. The nuclei were stained with Hoechst 33342 and counted using HCS technology.
(§2) HuH7, CaCo-2, MDA-MB-231, HCT116, PC3, MCF7 and NCI-H727 cancer cell lines were obtained from the ECACC collection (Porton Down, UK). Cells were grown at 37 °C, 5% CO2 in ECACC recommended media: DMEM for HuH7, MDA-MB-231 and fibroblast, EMEM for MCF7and CaCo-2, McCoy’s for HCT116 and RPMI for PC3 and NCI-H727. All culture media were supplemented with 10% of FBS, 1% of penicillin-streptomycin and 2 mM glutamine.
(§3) Chemicals were solubilized in DMSO at a concentration of 10 mM (stock solution) and diluted in culture medium to the desired final concentrations.
(§4) The cytotoxic assay of chemical was performed at 25 µM. Cells were plated in 96 wells plates (4000 cells/well). Twenty-four hours after seeding, cells were exposed to chemicals. After 48 h of treatment, cells were washed in PBS and fixed in cooled 90% ethanol/5% acetic acid for 20 min and the nuclei were stained with Hoechst 33342 (B2261 Sigma). Image acquisition and analysis were performed using a CellomicsArrayScan VTI/HCS Reader (ThermoScientific, Waltham, MA, USA). The survival percentages were calculated as the percentage of cell number after compound treatment over cell number after DMSO treatment.

[1] = cytotoxic assay, nuclei count (Hoechst, HCS); type: cell-based, human; conditions: human, human skin fibroblasts (non-cancerous reference cells); 48 h treatment; some cells add low/moderate/high amplitude; read-out: Cytotoxic studies IC50 Fibroblasts
Description: as §1, §2, §3, §4

HsCLK1 = target: T7, HsCLK1 (Homo sapiens, UniProt P49759); assay: ADP-Glo kinase assay; type: biochemical
T7 construct: host or cells: Sf9 insect cells (baculovirus)
T7 sequence (P49759 whole entry): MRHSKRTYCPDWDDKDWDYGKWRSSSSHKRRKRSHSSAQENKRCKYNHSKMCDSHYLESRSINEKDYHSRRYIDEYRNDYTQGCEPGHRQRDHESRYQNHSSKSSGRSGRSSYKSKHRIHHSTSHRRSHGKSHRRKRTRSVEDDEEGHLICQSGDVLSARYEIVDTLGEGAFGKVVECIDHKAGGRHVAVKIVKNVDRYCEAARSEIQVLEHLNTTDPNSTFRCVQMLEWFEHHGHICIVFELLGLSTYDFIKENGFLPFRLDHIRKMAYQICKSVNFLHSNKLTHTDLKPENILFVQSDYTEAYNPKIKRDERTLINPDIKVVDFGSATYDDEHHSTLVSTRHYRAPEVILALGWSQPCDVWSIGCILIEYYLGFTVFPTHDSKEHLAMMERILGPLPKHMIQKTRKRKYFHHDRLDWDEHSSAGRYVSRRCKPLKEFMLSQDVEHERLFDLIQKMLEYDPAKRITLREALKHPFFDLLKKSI

Hs_CDK9/CyclinT = target: T8, Hs_CDK9/CyclinT (Homo sapiens, UniProt P50750); assay: ADP-Glo kinase assay, primary screen; type: biochemical; conditions: n=2, read-out: % of residual activity Hs_CDK9/CyclinT
T8 construct: host or cells: Sf9 insect cells (baculovirus)
T8 sequence (P50750 whole entry): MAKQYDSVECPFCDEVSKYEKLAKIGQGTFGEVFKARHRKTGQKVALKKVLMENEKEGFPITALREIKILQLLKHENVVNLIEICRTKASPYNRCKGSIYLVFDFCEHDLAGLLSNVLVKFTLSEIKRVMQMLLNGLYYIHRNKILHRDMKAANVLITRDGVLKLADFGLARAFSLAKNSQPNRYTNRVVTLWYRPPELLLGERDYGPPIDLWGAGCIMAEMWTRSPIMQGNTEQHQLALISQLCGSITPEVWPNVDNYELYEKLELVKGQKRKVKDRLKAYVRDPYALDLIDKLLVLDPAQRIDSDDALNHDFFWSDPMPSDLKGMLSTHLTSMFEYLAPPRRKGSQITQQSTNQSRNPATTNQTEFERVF
T8 sequence (O60563 whole entry partner): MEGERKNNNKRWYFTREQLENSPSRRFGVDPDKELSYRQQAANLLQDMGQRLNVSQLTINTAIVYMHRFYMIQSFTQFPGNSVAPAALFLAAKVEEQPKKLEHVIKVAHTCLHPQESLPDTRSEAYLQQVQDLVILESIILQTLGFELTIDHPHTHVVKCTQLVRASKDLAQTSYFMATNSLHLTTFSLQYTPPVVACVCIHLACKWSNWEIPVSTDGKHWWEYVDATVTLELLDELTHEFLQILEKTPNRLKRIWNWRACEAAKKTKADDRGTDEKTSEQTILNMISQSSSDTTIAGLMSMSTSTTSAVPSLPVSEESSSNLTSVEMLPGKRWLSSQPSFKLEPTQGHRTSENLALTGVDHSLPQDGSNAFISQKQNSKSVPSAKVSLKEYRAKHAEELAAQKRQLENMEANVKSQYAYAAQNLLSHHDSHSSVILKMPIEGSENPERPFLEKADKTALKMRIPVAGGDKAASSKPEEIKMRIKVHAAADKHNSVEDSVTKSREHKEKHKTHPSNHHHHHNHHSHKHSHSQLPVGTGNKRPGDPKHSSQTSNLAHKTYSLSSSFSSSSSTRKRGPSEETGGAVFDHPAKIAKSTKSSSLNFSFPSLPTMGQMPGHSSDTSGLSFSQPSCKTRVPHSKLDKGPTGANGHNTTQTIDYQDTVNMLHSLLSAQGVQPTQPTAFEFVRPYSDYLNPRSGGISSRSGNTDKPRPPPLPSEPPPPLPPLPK

[2] = cytotoxic assay, nuclei count (Hoechst, HCS); type: cell-based; conditions: human, MCF7 cells (breast carcinoma); 48 h treatment; read-out: Cytotoxic studies IC50 MCF7
Description: as §1, §2, §3, §4

[3] = cytotoxic assay, nuclei count (Hoechst, HCS); type: cell-based; conditions: human, 48 h treatment
Description: as §1, §2, §3
as §4, with “The cytotoxic assay of chemical was performed at 25 µM.” left out

Hs_PIM1 = target: T9, Hs_PIM1 (Homo sapiens, UniProt P11309); assay: ADP-Glo kinase assay, primary screen; type: biochemical; conditions: n=2, read-out: % of residual activity Hs_PIM1
T9 construct: host or cells: Sf9 insect cells (baculovirus)
T9 sequence (P11309 whole entry): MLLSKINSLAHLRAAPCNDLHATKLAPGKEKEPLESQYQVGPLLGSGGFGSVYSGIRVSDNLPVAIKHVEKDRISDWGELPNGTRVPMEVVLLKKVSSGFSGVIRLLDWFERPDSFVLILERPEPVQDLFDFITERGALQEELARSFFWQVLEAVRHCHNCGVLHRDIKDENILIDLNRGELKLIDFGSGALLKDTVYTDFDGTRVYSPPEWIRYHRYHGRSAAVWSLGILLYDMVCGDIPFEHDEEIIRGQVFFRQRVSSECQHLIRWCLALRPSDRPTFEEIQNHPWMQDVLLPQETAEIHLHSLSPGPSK

[4] = cytotoxic assay, nuclei count (Hoechst, HCS); type: cell-based; conditions: human, MDA-MB-231 cells (breast carcinoma); 48 h treatment; read-out: Cytotoxic studies IC50 MDA-MB-231
[5] = cytotoxic assay, nuclei count (Hoechst, HCS); type: cell-based; conditions: human, HuH7 cells (hepatocellular carcinoma); 48 h treatment; read-out: Cytotoxic studies IC50 HuH7
Hs_GSK3β = target: T10, Hs_GSK3β (Homo sapiens, UniProt P49841); assay: ADP-Glo kinase assay, primary screen; type: biochemical; conditions: n=2, read-out: % of residual activity Hs_GSK3β
T10 construct: host or cells: Sf9 insect cells (baculovirus)
T10 sequence (P49841 whole entry): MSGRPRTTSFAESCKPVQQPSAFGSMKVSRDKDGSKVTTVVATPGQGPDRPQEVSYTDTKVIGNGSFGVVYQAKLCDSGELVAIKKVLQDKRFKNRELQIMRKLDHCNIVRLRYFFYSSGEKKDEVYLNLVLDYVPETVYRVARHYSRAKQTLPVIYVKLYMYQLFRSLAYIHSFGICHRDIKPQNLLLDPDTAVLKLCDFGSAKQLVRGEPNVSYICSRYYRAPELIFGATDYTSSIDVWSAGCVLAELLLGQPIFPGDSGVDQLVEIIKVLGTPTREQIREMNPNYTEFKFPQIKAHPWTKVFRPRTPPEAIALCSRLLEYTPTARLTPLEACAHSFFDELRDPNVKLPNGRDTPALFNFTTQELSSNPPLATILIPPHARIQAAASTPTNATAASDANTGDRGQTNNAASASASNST

[6] = cytotoxic assay, nuclei count (Hoechst, HCS); type: cell-based; conditions: human, Caco-2 cells (colorectal adenocarcinoma); 48 h treatment; read-out: Cytotoxic studies IC50 Caco2
[7] = HCT116 cells (colorectal adenocarcinoma), read-out: Cytotoxic studies IC50 HCT116
[8] = MDA-MB-468 cells (breast carcinoma), read-out: Cytotoxic studies IC50 MDA-MB-468

T1 sequence (Q00535 whole entry): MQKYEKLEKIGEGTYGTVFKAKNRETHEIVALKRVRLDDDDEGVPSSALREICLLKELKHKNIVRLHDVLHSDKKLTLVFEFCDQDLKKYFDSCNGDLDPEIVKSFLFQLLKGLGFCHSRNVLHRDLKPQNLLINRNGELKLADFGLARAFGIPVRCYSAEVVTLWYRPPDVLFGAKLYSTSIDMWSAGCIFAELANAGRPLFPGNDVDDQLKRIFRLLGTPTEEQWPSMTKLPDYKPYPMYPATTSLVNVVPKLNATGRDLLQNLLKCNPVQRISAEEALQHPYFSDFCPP
T1 sequence (Q15078 99-307 partner limits assumed): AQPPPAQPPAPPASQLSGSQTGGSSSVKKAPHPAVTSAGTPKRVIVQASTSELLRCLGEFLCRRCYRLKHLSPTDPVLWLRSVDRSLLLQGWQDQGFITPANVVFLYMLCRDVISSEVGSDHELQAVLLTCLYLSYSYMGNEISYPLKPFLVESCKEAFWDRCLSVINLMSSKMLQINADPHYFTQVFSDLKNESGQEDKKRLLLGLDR

## Cc1ccc(-n2cc(COc3cccc4cnc(Nc5ccccc5)nc34)nn2)c([N+](=O)[O-])c1 [7a, N-Phenyl-8-((1-(4-methyl-2-nitrophenyl)-1H-1,2,3-triazol-4-yl)methoxy)quinazolin-2-amine]
Hs_CDK5/p25
  remaining activity at 1 µM: ≥ 100%
  remaining activity at 10 µM: 65%
Hs_HASPIN
  remaining activity at 1 µM: 95%
  remaining activity at 10 µM: 94%
Hs_CK1ε
  remaining activity at 1 µM: 93%
  remaining activity at 10 µM: 89%
Rn_DYRK1A
  remaining activity at 1 µM: 56%
  remaining activity at 10 µM: 90%
HsDYRK1A
  remaining activity at 1 µM: ≥ 100%
  remaining activity at 10 µM: 92%
MmCLK1
  remaining activity at 1 µM: 43%
  remaining activity at 10 µM: 30%
  IC50: 0.466 µM
Human skin fibroblasts
  toxicity towards fibroblasts: non-toxic
[1]
  IC50 at 48 h: > 25 µM
HsCLK1; 10 µM ATP, duplicate, read-out: IC50 HsCLK1
  IC50: 1.1 µM
HsCLK1; ratio of IC50 1100 and […] nM
  times less active than DB18 on human CLK1: 100 times
Hs_CDK9/CyclinT
  remaining activity at 1 µM: 55%
  remaining activity at 10 µM: 45%
[2]
  IC50 at 48 h: 7 µM
[3]; [7]
  IC50 at 48 h: 7 µM
[3]; [8]
  IC50 at 48 h: > 25 µM
Hs_PIM1
  remaining activity at 1 µM: 81%
  remaining activity at 10 µM: 60%
[4]
  IC50 at 48 h: 9 µM
[5]
  IC50 at 48 h: 3 µM
Hs_GSK3β
  remaining activity at 1 µM: 87%
  remaining activity at 10 µM: 70%

## O=[N+]([O-])c1cc(O)ccc1-n1cc(COc2cccc3cnc(Nc4cccc(Cl)c4)nc23)nn1 [12c, N-(3-Chlorophenyl)-8-((1-(4-hydroxy-2-nitrophenyl)-1H-1,2,3-triazol-4-yl)methoxy)quinazolin-2-amine]
Hs_CDK5/p25
  remaining activity at 1 µM: 71%
  remaining activity at 10 µM: 30%
Hs_HASPIN
  remaining activity at 1 µM: 83%
  remaining activity at 10 µM: 88%
Hs_CK1ε
  remaining activity at 1 µM: 94%
  remaining activity at 10 µM: 81%
Rn_DYRK1A
  remaining activity at 1 µM: 81%
  remaining activity at 10 µM: 45%
HsDYRK1A
  remaining activity at 1 µM: ≥ 100%
  remaining activity at 10 µM: 60%
MmCLK1
  remaining activity at 1 µM: 36%
  remaining activity at 10 µM: 20%
  IC50: 0.177 µM
Human skin fibroblasts
  toxicity towards fibroblasts: moderate toxicity
[1]
  IC50 at 48 h: 6 µM
[6]
  IC50 at 48 h: 24 µM
Hs_CDK9/CyclinT
  remaining activity at 1 µM: 58%
  remaining activity at 10 µM: 39%
[2]
  IC50 at 48 h: 9 µM
[3]; [7]
  IC50 at 48 h: 1.3 µM
[3]; [8]
  IC50 at 48 h: 4 µM
Hs_PIM1
  remaining activity at 1 µM: 59%
  remaining activity at 10 µM: 68%
[4]
  IC50 at 48 h: 19 µM
[5]
  IC50 at 48 h: 5 µM
Hs_GSK3β
  remaining activity at 1 µM: 89%
  remaining activity at 10 µM: 60%
